From patent US9624170B2, “4-(piperrazin-1-yl)-pyrrolidin-2-one compounds as monoacylglycerol lipase (MAGL) inhibitors” (TAKEDA PHARMACEUTICAL COMPANY LIMITED, priority 2013, dated 2017)
Counter-ions that a name gives are not always drawn.

molecular target: T1, human MAGL (His-hMAGL) (Homo sapiens, UniProt Q99685); test: Measurement of MAGL inhibitory activity by mass spectrometry; assay type: biochemical; settings: MAGL inhibitory rate, test compound 10 μM, His-hMAGL, substrate 2-arachidonylglycerol, RapidFire-mass spectrometry
T1 construct: made in house; host or cells: Escherichia coli BL21(DE3)
T1 sequence (Q99685 1-303): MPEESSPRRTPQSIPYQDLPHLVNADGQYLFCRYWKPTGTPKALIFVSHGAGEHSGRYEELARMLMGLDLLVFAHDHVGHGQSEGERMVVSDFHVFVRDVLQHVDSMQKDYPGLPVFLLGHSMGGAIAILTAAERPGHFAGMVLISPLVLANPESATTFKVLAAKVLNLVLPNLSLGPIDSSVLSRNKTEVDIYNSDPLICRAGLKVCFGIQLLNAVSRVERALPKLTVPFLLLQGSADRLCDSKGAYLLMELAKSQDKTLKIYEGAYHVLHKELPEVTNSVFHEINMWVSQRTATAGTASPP
Method in brief: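 His-tagged human MAGL was reacted with 150 μM 2-arachidonylglycerol substrate (stock, added by 5 μL) for 10 min at room temperature, then stopped with formic acid. Arachidonic acid product was quantified by RapidFire–triple-quadrupole MS in negative SRM mode, corrected by arachidonic acid-d8, and converted to percent inhibition.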

| Structure (SMILES) | inhibition at 10 µM [%] |
| --- | --- |
| Cc1cc(-c2ccccc2)cc(N2CC(N3CCN(C(=O)c4nccs4)CC3)CC2=O)c1 (centres unmarked) [Example 240, 1-(5-methylbiphenyl-3-yl)-4-(4-(1,3-thiazol-2-ylcarbonyl)piperazin-1-yl)pyrrolidin-2-one] | 99 |
| O=C(c1nccs1)N1CCN(C2CC(=O)N(c3cc(-c4ccccc4)ccc3F)C2)CC1 (centres unmarked) [Example 241, 1-(4-fluorobiphenyl-3-yl)-4-(4-(1,3-thiazol-2-ylcarbonyl)piperazin-1-yl)pyrrolidin-2-one] | 96 |
| O=C(c1nccs1)N1CCN(C2CC(=O)N(c3cc(F)cc(-c4ccccc4)c3)C2)CC1 (centres unmarked) [Example 242, 1-(5-fluorobiphenyl-3-yl)-4-(4-(1,3-thiazol-2-ylcarbonyl)piperazin-1-yl)pyrrolidin-2-one] | 99 |
| O=C(c1nccs1)N1CCN(C2CC(=O)N(c3ccc(F)c(-c4ccccc4)c3)C2)CC1 (centres unmarked) [Example 243, 1-(6-fluorobiphenyl-3-yl)-4-(4-(1,3-thiazol-2-ylcarbonyl)piperazin-1-yl)pyrrolidin-2-one] | 100 |
| O=C(c1nccs1)N1CCN(C2CC(=O)N(c3cccc(-c4ccccc4)c3F)C2)CC1 (centres unmarked) [Example 244, 1-(2-fluorobiphenyl-3-yl)-4-(4-(1,3-thiazol-2-ylcarbonyl)piperazin-1-yl)pyrrolidin-2-one] | 98 |
| O=C(c1nccs1)N1CCN([C@@H]2CC(=O)N(c3ccc4c(ccn4-c4cnc(C(F)(F)F)cn4)c3)C2)CC1 [Example 245, (4R)-4-(4-(1,3-thiazol-2-ylcarbonyl)piperazin-1-yl)-1-(1-(5-(trifluoromethyl)pyrazin-2-yl)-1H-indol-5-yl)pyrrolidin-2-one] | 98 |
| O=C(c1nccs1)N1CCN([C@@H]2CC(=O)N(c3ccc4c(ccn4-c4ccnc(C(F)(F)F)c4)c3)C2)CC1 [Example 246, (4R)-4-(4-(1,3-thiazol-2-ylcarbonyl)piperazin-1-yl)-1-(1-(2-(trifluoromethyl)pyridin-4-yl)-1H-indol-5-yl)pyrrolidin-2-one] | 98 |
| Cc1ccc(-c2ccccc2)cc1N1CC(N2CCN(C(=O)c3nccs3)CC2)CC1=O (centres unmarked) [Example 247, 1-(4-methylbiphenyl-3-yl)-4-(4-(1,3-thiazol-2-ylcarbonyl)piperazin-1-yl)pyrrolidin-2-one] | 99 |
| Cc1ccc(N2CC(N3CCN(C(=O)c4nccs4)CC3)CC2=O)cc1-c1ccccc1 (centres unmarked) [Example 248, 1-(6-methylbiphenyl-3-yl)-4-(4-(1,3-thiazol-2-ylcarbonyl)piperazin-1-yl)pyrrolidin-2-one] | 103 |
| Cc1c(-c2ccccc2)cccc1N1CC(N2CCN(C(=O)c3nccs3)CC2)CC1=O (centres unmarked) [Example 249, 1-(2-methylbiphenyl-3-yl)-4-(4-(1,3-thiazol-2-ylcarbonyl)piperazin-1-yl)pyrrolidin-2-one] | 96 |
| O=C(c1nccs1)N1CCN(C2CC(=O)N(c3ccc4c(ccn4-c4ccccc4)c3)C2)CC1 (centres unmarked) [Example 250, 1-(1-phenyl-1H-indol-5-yl)-4-(4-(1,3-thiazol-2-ylcarbonyl)piperazin-1-yl)pyrrolidin-2-one] | 101 |
| Cc1cccc(-n2ccc3cc(N4CC(N5CCN(C(=O)c6nccs6)CC5)CC4=O)ccc32)c1 (centres unmarked) [Example 251, 1-(1-(3-methylphenyl)-1H-indol-5-yl)-4-(4-(1,3-thiazol-2-ylcarbonyl)piperazin-1-yl)pyrrolidin-2-one] | 102 |
| Cc1ccnc(-n2ccc3cc(N4CC(N5CCN(C(=O)c6nccs6)CC5)CC4=O)ccc32)c1 (centres unmarked) [Example 252, 1-(1-(4-methylpyridin-2-yl)-1H-indol-5-yl)-4-(4-(1,3-thiazol-2-ylcarbonyl)piperazin-1-yl)pyrrolidin-2-one] | 103 |
| Cc1ccccc1-n1ccc2cc(N3CC(N4CCN(C(=O)c5nccs5)CC4)CC3=O)ccc21 (centres unmarked) [Example 253, 1-(1-(2-methylphenyl)-1H-indol-5-yl)-4-(4-(1,3-thiazol-2-ylcarbonyl)piperazin-1-yl)pyrrolidin-2-one] | 101 |

Further lines, results first:

| inhibition at 10 µM [%] | Structure (SMILES) |
| --- | --- |
| 95 | O=C1CC(N2CCN(c3ncccn3)CC2)CN1c1cccc(I)c1 (centres unmarked) [Example 254, 1-(3-iodophenyl)-4-(4-(pyrimidin-2-yl)piperazin-1-yl)pyrrolidin-2-one] |
| 101 | Cc1cc(-n2ccc3cc(N4CC(N5CCN(C(=O)c6nccs6)CC5)CC4=O)ccc32)ccn1 (centres unmarked) [Example 255, 1-(1-(2-methylpyridin-4-yl)-1H-indol-5-yl)-4-(4-(1,3-thiazol-2-ylcarbonyl)piperazin-1-yl)pyrrolidin-2-one] |
| 102 | Cc1ncccc1-c1cccc(N2CC(N3CCN(c4ncccn4)CC3)CC2=O)c1 (centres unmarked) [Example 256, 1-(3-(2-Methylpyridin-3-yl)phenyl)-4-(4-(pyrimidin-2-yl)piperazin-1-yl)pyrrolidin-2-one] |
| 99 | O=C(c1nccs1)N1CCN([C@@H]2CC(=O)N(c3ccc4c(ccn4-c4ncc(C(F)(F)F)cn4)c3)C2)CC1 [Example 257, (4R)-4-(4-(1,3-Thiazol-2-ylcarbonyl)piperazin-1-yl)-1-(1-(5-(trifluoromethyl)pyrimidin-2-yl)-1H-indol-5-yl)pyrrolidin-2-one hydrochloride] |
| 102 | Cc1nc(C)c(-c2cccc(N3CC(N4CCN(C(=O)c5nccs5)CC4)CC3=O)c2)s1 (stereo not drawn) [Example 258, 1-(3-(2,4-dimethyl-1,3-thiazol-5-yl)phenyl)-4-(4-(1,3-thiazol-2-ylcarbonyl)piperazin-1-yl)pyrrolidin-2-one(optical isomer)] |
| 84 | O=C(c1nccs1)N1CCN(C2CN(c3ccc(Oc4ccccc4)cc3)C(=O)C2O)CC1 (centres unmarked) [Example 260, 3-Hydroxy-1-(4-phenoxyphenyl)-4-(4-(1,3-thiazol-2-ylcarbonyl)piperazin-1-yl)pyrrolidin-2-one] |
| 100 | O=C(c1nccs1)N1CCN(C2CN(c3ccc(Oc4ccccc4)cc3)C(=O)C2F)CC1 (centres unmarked) [Example 261, 3-Fluoro-1-(4-phenoxyphenyl)-4-(4-(1,3-thiazol-2-ylcarbonyl)piperazin-1-yl)pyrrolidin-2-one] |
| 92 | Cc1cc(-c2ccc(N3CC(N4CCN(C(=O)c5nccs5)CC4)CC3=O)cc2)ccn1 (centres unmarked) [Example 264, 1-(4-(2-methylpyridin-4-yl)phenyl)-4-(4-(1,3-thiazol-2-ylcarbonyl)piperazin-1-yl)pyrrolidin-2-one] |
| 97 | Cc1ccc(-c2ccc(N3CC(N4CCN(C(=O)c5nccs5)CC4)CC3=O)cc2)cn1 (centres unmarked) [Example 265, 1-(4-(6-methylpyridin-3-yl)phenyl)-4-(4-(1,3-thiazol-2-ylcarbonyl)piperazin-1-yl)pyrrolidin-2-one] |
| 101 | Cc1ccccc1-c1cccc(N2CC(N3CCN(c4ncccn4)CC3)CC2=O)c1 (centres unmarked) [Example 268, 1-(2′-methylbiphenyl-3-yl)-4-(4-(pyrimidin-2-yl)piperazin-1-yl)pyrrolidin-2-one] |
| 101 | O=C1CC(N2CCN(c3ncccn3)CC2)CN1c1cccc(-c2ccccc2Cl)c1 (centres unmarked) [Example 269, 1-(2′-chlorobiphenyl-3-yl)-4-(4-(pyrimidin-2-yl)piperazin-1-yl)pyrrolidin-2-one] |
| 100 | O=C(c1cscn1)N1CCN(C2CC(=O)N(c3ccc4c(ccn4-c4ccc(F)cc4)c3)C2)CC1 (centres unmarked) [Example 270, 1-(1-(4-fluorophenyl)-1H-indol-5-yl)-4-(4-(1,3-thiazol-4-ylcarbonyl)piperazin-1-yl)pyrrolidin-2-one] |
| 101 | O=C(c1nccs1)N1CCN([C@@H]2CC(=O)N(c3ccc4c(c3)CCN4c3ncc(C(F)(F)F)cn3)C2)CC1 [Example 271, (4R)-4-(4-(1,3-thiazol-2-ylcarbonyl)piperazin-1-yl)-1-(1-(5-(trifluoromethyl)pyrimidin-2-yl)-2,3-dihydro-1H-indol-5-yl)pyrrolidin-2-one] |
| 100 | Cc1ncnc(C)c1-c1cccc(N2CC(N3CCN(C(=O)c4nccs4)CC3)CC2=O)c1 (centres unmarked) [Example 273, 1-(3-(4,6-Dimethylpyrimidin-5-yl)phenyl)-4-(4-(1,3-thiazol-2-ylcarbonyl)piperazin-1-yl)pyrrolidin-2-one] |
| 96 | Cc1cccc(-c2ccc(N3CC(N4CCN(C(=O)c5nccs5)CC4)CC3=O)cc2)n1 (centres unmarked) [Example 274, 1-(4-(6-methylpyridin-2-yl)phenyl)-4-(4-(1,3-thiazol-2-ylcarbonyl)piperazin-1-yl)pyrrolidin-2-one] |
| 103 | O=C(c1nccs1)N1CCN(C2CC(=O)N(c3cccc(-c4ccc(F)cc4Cl)c3)C2)CC1 (centres unmarked) [Example 275, 1-(2′-chloro-4′-fluorobiphenyl-3-yl)-4-(4-(1,3-thiazol-2-ylcarbonyl)piperazin-1-yl)pyrrolidin-2-one] |

same assay, conditions: MAGL inhibitory rate, test compound 10 μM, His-hMAGL, substrate 2-arachidonylglycerol, RapidFire-mass spectrometry; 10 µM

| % inhibition at 10 μM [%] | Structure (SMILES) |
| --- | --- |
| 99 | O=C(c1nccs1)N1CCN(C2CC(=O)N(c3cccc(-c4cccnc4Cl)c3)C2)CC1 (stereo not drawn) [Example 266, 1-(3-(2-chloropyridin-3-yl)phenyl)-4-(4-(1,3-thiazol-2-ylcarbonyl)piperazin-1-yl)pyrrolidin-2-one(optical isomer)] |
| 102 | O=C1Cc2ccc(-c3cccc(N4CC(N5CCN(C(=O)c6nccs6)CC5)CC4=O)c3)cc2N1 (stereo not drawn) [Example 267, 6-(3-(2-oxo-4-(4-(1,3-thiazol-2-ylcarbonyl)piperazin-1-yl)pyrrolidin-1-yl)phenyl)-1,3-dihydro-2H-indol-2-one(optical isomer)] |
